Columns and labels:
[1] = exposure to oxygen: oxygenation of diclofenac, degradation of ofloxacin into ofloxacin-N-oxide; cited from earlier work
[2] = Sedimentation in liquid solutions; type: physicochemical; details: micronized, particulate form

O=C(O)Cc1ccccc1Nc1c(Cl)cccc1Cl [Diclofenac]
compatibility of diclofenac and ofloxacin [1]: generally incompatible

CC(=O)OCC(=O)[C@@]1(O)CC[C@H]2[C@@H]3CCC4=CC(=O)C=C[C@]4(C)[C@H]3[C@@H](O)C[C@@]21C [Prednisolone acetate]
time to sedimentation in liquid solutions [2]: less than one minute

— patent US11000530B2, “Methods and compositions for the treatment of ophthalmic conditions” (Murray & Poole Enterprises, Limited, priority 2017, dated 2021)
